For 30 compounds, inhibition results are on record in US11952344B2, “Heterocyclic compound and use thereof” (TAKEDA PHARMACEUTICAL COMPANY LIMITED, priority 2019, dated 2024).

For the assay, the target named is T1, Human NMDA (NR1/NR2B) Receptor (Homo sapiens, UniProt Q13224).
T1 construct: host or cells: HEK293
T1 sequence (Q13224 27-1484, other chains not shown): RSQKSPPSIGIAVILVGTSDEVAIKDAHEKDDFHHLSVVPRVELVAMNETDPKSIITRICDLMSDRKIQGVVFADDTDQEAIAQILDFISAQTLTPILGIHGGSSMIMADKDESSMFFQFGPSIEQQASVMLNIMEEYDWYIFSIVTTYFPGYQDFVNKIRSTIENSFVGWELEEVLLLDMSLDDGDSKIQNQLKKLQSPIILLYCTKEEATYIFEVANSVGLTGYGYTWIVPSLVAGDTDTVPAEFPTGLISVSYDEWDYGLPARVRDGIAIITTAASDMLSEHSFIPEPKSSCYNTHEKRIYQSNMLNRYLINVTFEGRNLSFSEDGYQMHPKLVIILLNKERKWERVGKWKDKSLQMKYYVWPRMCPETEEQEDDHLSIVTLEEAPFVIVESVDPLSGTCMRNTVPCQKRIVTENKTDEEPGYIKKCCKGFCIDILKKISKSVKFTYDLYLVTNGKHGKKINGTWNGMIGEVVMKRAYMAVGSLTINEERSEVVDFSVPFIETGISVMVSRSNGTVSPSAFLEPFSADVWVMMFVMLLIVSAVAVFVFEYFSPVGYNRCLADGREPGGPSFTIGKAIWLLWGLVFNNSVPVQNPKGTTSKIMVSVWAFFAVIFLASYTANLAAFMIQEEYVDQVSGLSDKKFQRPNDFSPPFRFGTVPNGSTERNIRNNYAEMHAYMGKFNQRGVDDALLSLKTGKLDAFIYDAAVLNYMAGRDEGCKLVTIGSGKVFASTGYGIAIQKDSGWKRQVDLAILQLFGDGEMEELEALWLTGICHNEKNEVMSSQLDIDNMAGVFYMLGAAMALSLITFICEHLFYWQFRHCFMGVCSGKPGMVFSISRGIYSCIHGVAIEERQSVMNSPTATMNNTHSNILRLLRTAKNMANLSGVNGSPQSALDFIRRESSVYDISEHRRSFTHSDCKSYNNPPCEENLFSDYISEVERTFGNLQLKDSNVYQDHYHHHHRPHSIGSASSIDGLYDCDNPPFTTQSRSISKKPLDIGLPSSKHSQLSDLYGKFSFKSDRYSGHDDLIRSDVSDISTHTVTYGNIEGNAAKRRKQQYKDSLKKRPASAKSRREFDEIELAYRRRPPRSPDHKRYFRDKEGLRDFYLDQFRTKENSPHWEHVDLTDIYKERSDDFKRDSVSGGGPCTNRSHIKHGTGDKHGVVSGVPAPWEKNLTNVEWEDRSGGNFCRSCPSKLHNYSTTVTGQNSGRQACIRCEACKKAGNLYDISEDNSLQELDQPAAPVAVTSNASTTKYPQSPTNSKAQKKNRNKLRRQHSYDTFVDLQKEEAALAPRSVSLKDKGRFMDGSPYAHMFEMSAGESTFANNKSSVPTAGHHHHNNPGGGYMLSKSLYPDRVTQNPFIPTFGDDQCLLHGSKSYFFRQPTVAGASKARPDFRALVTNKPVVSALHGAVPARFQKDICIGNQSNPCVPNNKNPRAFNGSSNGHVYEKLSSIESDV
Kind of assay: NR2B Ca2+ influx assay. The settings on record: 10 μM compound; HEK293 cells expressing GRIN1 and GRIN2B; glutamic acid/glycine-induced Ca2+ influx, Fluo-4 fluorescence; read-out: inhibitory rate (10 μM compound concentration). The format is cell-based. The text has this:
Experimental Example 1 NR2B Ca^2+ Influx Assay
To confirm the “antagonistic action on an NMDA receptor containing the NR2B subunit” of the compound of the present invention, human embryonic kidney cell expressing the “NMDA receptor composed of four subunits including 2 sets of heterodimers of NR1 and NR2B”, specifically HEK293 cell expressing human glutamate ionotropic receptor NMDA type subunit 1 (GRIN1) and human glutamate ionotropic receptor NMDA type subunit 2B (GRIN2B), was used and the activation suppressive effect (inhibitory activity) on the receptors by the compound of the present invention was measured.
HEK293 cells that express GRIN1 and GRIN2B were purchased from ChanTest (Human NMDA (NR1/NR2B) Receptor-expressing, stable replicating cell line (HEK293) catalog No. CT6121).
As an index of the NMDA receptor activation, intracellular calcium ion (Ca^2+) influx caused by the binding of glycine and glutamic acid with NR1 and NR2B, respectively, was used.
HEK293 cells that express GRIN1 and GRIN2B were cultured in a cell culture flask in DMEM/F-12 (COSMO BIO, 10-092-CM) medium added with 10% FBS (fetal bovine serum, AusGene), 100 units/mL penicillin, 100 μg/mL streptomycin, 500 μg/mL neomycin, 100 μg/mL Zeocin (registered trade mark, Invitrogen), 5 μg/mL Blasticidin, in an incubator (37° C., 5% CO2).
The cells were detached from flask with trypsin the day before the assay, suspended in a seeding medium (DMEM (Invitrogen, 31053) added with 10% FBS, 100 units/mL penicillin, 100 μg/mL streptomycin) at 8×10^5 cells/mL, seeded by 25 μL/well in a 384-well plate (Falcon, 356663) at 20000 cells/well, and cultured overnight in an incubator. On the day of the assay, tetracycline (Wako Pure Chemical Industries, Ltd., 209-16561) was diluted with the seeding medium at 2 μg/mL, added at 25 μL/well to the plate seeded with the cells, and cultured for 2 hr in an incubator. Thereafter, the medium was removed, and the cells were washed with 50 μL/well assay buffer (137 mM NaCl, 4 mM KCl, 1.8 mM CaCl2, 10 mM HEPES (pH 7.2), 10 mM Glucose, 0.1% BSA). Then, a loading buffer (assay buffer added with 2.5 μM Fluo-4AM, 2 mM Amaranth, 1 mM Tartrazine) was added at 25 μL/well, and incubation was performed in the incubator for 30 min, and at room temperature for 15 min. A solution (25 μL/well) of the Example compound diluted with the above-mentioned assay buffer at 30 μM (final concentration 10 μM) was added, and the cells were stood for 15 min at room temperature. Using FDSS7000EX/μCELL (Hamamatsu Photonics K.K.), 25 μL/well of an assay buffer containing 30 μM glutamic acid, 30 μM glycine was added, and the fluorescence signal at wavelength of Excitation 480 nm, Emission 540 nm was measured every 3 seconds for 5 min. The inhibitory activity was calculated as a relative activity value (inhibitory rate) that inhibits 100% of the cumulative value of the fluorescence value of a well added with an assay buffer free of glutamic acid, glycine, relative to the cumulative value of the fluorescence value of each well.
With `Cc1ccncc1CNC(=O)c1cc(F)c(OC(F)F)c(F)c1` [Example 55, 4-(difluoromethoxy)-3,5-difluoro-N-[(4-methylpyridin-3-yl)methyl]benzamide], the inhibition at 10 µM was 91%.
Consider `CC(F)(F)c1ncc(C(=O)NCc2cncnc2OC2CC2)cc1Cl` [Example 95, 5-chloro-N-{[4-(cyclopropyloxy)pyrimidin-5-yl]methyl}-6-(1,1-difluoroethyl)pyridine-3-carboxamide], for which the inhibition at 10 µM is 90%.
For `Cc1ccncc1CNC(=O)c1ccc(OC(F)F)nc1` [Example 51, 6-(difluoromethoxy)-N-[(4-methylpyridin-3-yl)methyl]pyridine-3-carboxamide], the inhibition at 10 µM was 87%.
Take `COc1ncncc1CNC(=O)c1cc(F)c(OC)c(F)c1` [Example 62, 3,5-difluoro-4-methoxy-N-[(4-methoxypyrimidin-5-yl)methyl]benzamide]: the inhibition at 10 µM is 87%.
To `O=C(NCc1cncc(Cl)c1)c1ccc(OC(F)(F)F)cc1` [Example 2, N-[(5-chloropyridin-3-yl)methyl]-4-(trifluoromethoxy)benzamide] belongs 93%; to `COc1ncncc1CNC(=O)c1csc(C2CC2)c1` [Example 79, 5-cyclopropyl-N-[(4-methoxypyrimidin-5-yl)methyl]thiophene-3-carboxamide], 89%.
Under `O=C(NCc1cncnc1C1CC1(F)F)c1cnc(OC(F)F)c(F)c1` (stereo not drawn) [Example 37, N-{[4-(2,2-difluorocyclopropyl)-pyrimidin-5-yl]methyl}-6-(difluoromethoxy)-5-fluoropyridine-3-carboxamide] stands 84%; under `Cc1ccncc1CNC(=O)c1ccc(C(F)(F)F)c(Cl)c1` [Example 54, 3-chloro-N-[(4-methylpyridin-3-yl)methyl]-4-(trifluoromethyl)-benzamide], 94%; under `COc1ccncc1CNC(=O)c1cnc(OC(F)(F)F)c(F)c1` [Example 34, 5-fluoro-N-[(4-methoxypyridin-3-yl)methyl]-6-(trifluoromethoxy)pyridine-3-carboxamide], 97%.
Take `O=C(NCc1cncc(Br)c1)c1ccc(OC(F)(F)F)cc1` [Example 3, N-[(5-bromopyridin-3-yl)methyl]-4-(trifluoromethoxy)benzamide]: the inhibition at 10 µM came to 95%.
Under `Cc1ccncc1CNC(=O)c1ccc(OC(F)F)cc1` [Example 50, 4-(difluoromethoxy)-N-[(4-methylpyridin-3-yl)methyl]benzamide] stands 90%; under `O=C(NCc1cncnc1OC1CC1)c1cnc(OC(F)F)c(F)c1` [Example 19, N-{[4-(cyclopropyloxy)pyrimidin-5-yl]methyl}-6-(difluoromethoxy)-5-fluoropyridine-3-carboxamide], 91%; under `CC(F)(F)c1ncncc1CNC(=O)c1cnc(OC(F)F)c(F)c1` [Example 29, N-{[4-(1,1-difluoroethyl)-pyrimidin-5-yl]methyl}-6-(difluoromethoxy)-5-fluoropyridine-3-carboxamide], 92%.
Under `Cc1ccncc1CNC(=O)c1ccc(C(F)(F)F)s1` [Example 64, N-[(4-methylpyridin-3-yl)methyl]-5-(trifluoromethyl)thiophene-2-carboxamide] stands 85%.
To `CCOc1ncncc1CNC(=O)c1cc(F)c(OC)c(F)c1` [Example 86, N-[(4-ethoxypyrimidin-5-yl)methyl]-3,5-difluoro-4-methoxybenzamide] belongs 90%; to `Cc1ncncc1CNC(=O)c1ccc(OC(F)(F)F)c(F)c1` [Example 30, 3-fluoro-N-[(4-methylpyrimidin-5-yl)methyl]-4-(trifluoromethoxy)-benzamide], 92%.
`COc1ncncc1CNC(=O)c1cnc(C(C)(F)F)c(F)c1` [Example 92, 6-(1,1-difluoroethyl)-5-fluoro-N-[(4-methoxypyrimidin-5-yl)methyl]pyridine-3-carboxamide]: the inhibition at 10 µM was 86%.
Under `Cc1ccncc1CNC(=O)c1cnc(C2CC2)c(F)c1` [Example 46, 6-cyclopropyl-5-fluoro-N-[(4-methylpyridin-3-yl)methyl]pyridine-3-carboxamide] stands 95%.
To `COc1cncc(CNC(=O)c2ccc(OC(F)(F)F)cc2)c1` [Example 1, N-[(5-methoxypyridin-3-yl)methyl]-4-(trifluoromethoxy)benzamide] belongs 95%; to `CCOc1ccncc1CNC(=O)c1cnc(OC(F)F)c(F)c1` [Example 10, 6-(difluoromethoxy)-N-[(4-ethoxypyridin-3-yl)methyl]-5-fluoropyridine-3-carboxamide], 96%.
As for `Cc1c(F)cncc1CNC(=O)c1cnc(OC(F)F)c(Cl)c1` [Example 73, 5-chloro-6-(difluoromethoxy)-N-[(5-fluoro-4-methylpyridin-3-yl)methyl]pyridine-3-carboxamide], the inhibition at 10 µM came to 93%.
Take `COc1ncncc1CNC(=O)c1cnc(OC(F)F)c(Cl)c1` [Example 21, 5-chloro-6-(difluoromethoxy)-N-[(4-methoxypyrimidin-5-yl)methyl]pyridine-3-carboxamide]: the inhibition at 10 µM came out at 93%.
As to `Cc1ccncc1CNC(=O)c1csc(C2CC2)c1` [Example 56, 5-cyclopropyl-N-[(4-methylpyridin-3-yl)methyl]thiophene-3-carboxamide], the inhibition at 10 µM amounted to 93%.
For `COc1ccc(C(=O)NCc2cnccc2C)cc1F` [Example 60, 3-fluoro-4-methoxy-N-[(4-methylpyridin-3-yl)methyl]benzamide], the inhibition at 10 µM turned out to be 88%.
To `O=C(NCc1cnccc1OC1CC1)c1cnc(OC(F)F)c(F)c1` [Example 14, N-{[4-(cyclopropyloxy)-pyridin-3-yl]methyl}-6-(difluoromethoxy)-5-fluoropyridine-3-carboxamide] belongs 96%; to `Cc1ccncc1CNC(=O)c1ccc(C(F)F)c(Cl)c1` [Example 59, 3-chloro-4-(difluoromethyl)-N-[(4-methylpyridin-3-yl)methyl]benzamide], 93%.
To `COc1ncncc1CNC(=O)c1cc(F)c(OC)c(Cl)c1` [Example 84, 3-chloro-5-fluoro-4-methoxy-N-[(4-methoxypyrimidin-5-yl)methyl]benzainide] belongs 91%.
Regarding `Cc1c(F)cncc1CNC(=O)c1cnc(OC(F)F)c(F)c1` [Example 40, 6-(difluoromethoxy)-5-fluoro-N-[(5-fluoro-4-methylpyridin-3-yl)methyl]pyridine-3-carboxamide], the inhibition at 10 µM was 96%.
`Cc1c(F)cncc1CNC(=O)c1cnc(C2CC2(F)F)c(F)c1` (stereo not drawn) [Example 103, 6-(2,2-difluorocyclopropyl)-5-fluoro-N-[(5-fluoro-4-methylpyridin-3-yl)methyl]pyridine-3-carboxamide]: the inhibition at 10 µM stood at 92%.
Take `Cc1ccncc1CNC(=O)c1cnc(C(C)(F)F)c(F)c1` [Example 93, 6-(1,1-difluoroethyl)-5-fluoro-N-[(4-methylpyridin-3-yl)methyl]pyridine-3-carboxamide]: the inhibition at 10 µM came to 90%.
